According to ChEMBL document CHEMBL4706585, “Novel 2-indolinone thiazole hybrids as sunitinib analogues: Design, synthesis, and potent VEGFR-2 inhibition with potential anti-renal cancer activity” (Eur J Med Chem, 2020):

Legend:
CAKI-1 = experiment: Cytotoxicity against human CAKI-1 cells assessed as reduction in cell viability after 48 hrs by MTT assay; conditions: CAKI-1, 48 h
A498 = experiment: Cytotoxicity against human A498 cells assessed as reduction in cell viability after 48 hrs by MTT assay; conditions: A498, 48 h
[1] = Cytotoxicity against human RPTEC/TERT1 cells assessed as reduction in cell viability after 48 hrs by MTT assay

Structure (SMILES)	IC50 (CAKI-1)	IC50 (A498)	IC50 [1]
O=C1/C(=N\N=c2\[nH]c(-c3ccc([N+](=O)[O-])cc3)cs2)c2cc(Cl)ccc2N1Cc1ccccc1	5.78 µM	24.7 µM	–
CC(=O)c1s/c(=N\N=C2/C(=O)N(Cc3ccccc3)c3ccc(Cl)cc32)[nH]c1C	12.8 µM	6.27 µM	–
CCOC(=O)/C(=N/Nc1ccc(C)cc1)S/C(N)=N\N=C1/C(=O)N(Cc2ccccc2)c2ccc(Cl)cc21	3.9 µM	2.88 µM	–
CCOC(=O)c1s/c(=N\N=C2/C(=O)N(Cc3ccccc3)c3ccc(Cl)cc32)[nH]c1C	3.31 µM	1.23 µM	49.8 µM
O=C1CS/C(=N\N=C2/C(=O)N(Cc3ccccc3)c3ccc(Cl)cc32)N1	35.6 µM	3.45 µM	–
NC1=NNC(=O)/C1=C1/C(=O)N(Cc2ccccc2)c2ccc(Cl)cc21	0.82 µM	8.53 µM	–
CCN(CC)CCNC(=O)c1c(C)[nH]c(/C=C2\C(=O)Nc3ccc(F)cc32)c1C [SUNITINIB]	4.93 µM	1.25 µM	16.9 µM
